According to patent US4067986A, “Novel penicillanic acid” (Gist-Brocades N.V., priority 1974, dated 1978):
In brackets after ≈: the same amount, converted by molar mass.

Legend:
Format in all cases: cell-based
[1] = system: Streptococcus haemolyticus A 1088; assay: MIC, agar serial dilution test; settings: A1088
[2] = system: Streptococcus faecalis L 80; assay: MIC, agar serial dilution test; settings: Enterococcus faecalis, L80
[3] = system: Diplococcus pneumoniae L 54; assay: MIC, agar serial dilution test; settings: Streptococcus pneumoniae, L54
[4] = system: Pasteurella multocida A 723; assay: MIC, agar serial dilution test; settings: A723
[5] = system: Klebsiella pneumoniae A 809; assay: MIC, agar serial dilution test; settings: A809
[6] = system: Salmonella typhimurium R 172; assay: MIC, agar serial dilution test; settings: Salmonella enterica
[7] = system: Pseudomonas aeruginosa A 1058; assay: MIC, agar serial dilution test; settings: A1058
Proteus rettgeri A 821 = assay: MIC, agar serial dilution test; settings: Providencia rettgeri, A821
Proteus mirabilis L 93 = assay: MIC, agar serial dilution test; settings: L93
Haemophilus suis A 2096 [8] = assay: MIC, micro serial dilution test; settings: A2096, micro serial dilution test (brackets)
Haemophilus suis A 2096 [9] = assay: MIC, agar serial dilution test; settings: A2096
[10] = system: Pseudomonas aeruginosa H 10; assay: MIC, agar serial dilution test; settings: H10
[11] = system: Pseudomonas aeruginosa 2396; assay: MIC, agar serial dilution test
Proteus mirabilis H 3 = assay: MIC, agar serial dilution test; settings: H3
Proteus mirabilis A 1200 = assay: MIC, agar serial dilution test; settings: A1200

Row | MIC [2] [µg/mL] | MIC [3] [µg/mL] | MIC [4] [µg/mL] | MIC [5] [µg/mL] | MIC [6] [µg/mL] | MIC [7] [µg/mL] | MIC (Proteus rettgeri A 821) [µg/mL] | MIC (Proteus mirabilis L 93) [µg/mL] | MIC (Haemophilus suis A 2096 [8]) [µg/mL] | MIC (Haemophilus suis A 2096 [9]) [µg/mL] | MIC [10] [µg/mL] | MIC [11] [µg/mL] | MIC (Proteus mirabilis H 3) [µg/mL] | MIC (Proteus mirabilis A 1200) [µg/mL] | SMILES | MIC [1] [µg/mL]
1 | 25 (≈ 66.1 µM) | 0.75 (≈ 1.98 µM) | 0.2 (≈ 0.529 µM) | > 100 | 6 (≈ 15.9 µM) | 37 (≈ 97.8 µM) | 0.3 (≈ 0.793 µM) | 0.5 (≈ 1.32 µM) | 0.2 (≈ 0.529 µM) |  |  |  |  |  | CC1(C)S[C@@H]2[C@H](NC(=O)C(C(=O)O)c3ccccc3)C(=O)N2[C@H]1C(=O)O (stereo partly drawn) [carbenicillin] | 0.1 (≈ 0.264 µM)
2 |  | 0.05 (≈ 0.143 µM) |  |  | 3 (≈ 8.59 µM) | 50 (≈ 143 µM) | 3 (≈ 8.59 µM) | 3 (≈ 8.59 µM) |  | 0.15 (≈ 0.429 µM) | > 100 | 50 (≈ 143 µM) | 3 (≈ 8.59 µM) | 3 (≈ 8.59 µM) | CC1(C)S[C@@H]2[C@H](NC(=O)[C@H](N)c3ccccc3)C(=O)N2[C@H]1C(=O)O [ampicillin] | 0.75 (≈ 2.15 µM)
